From patent US9393326B2, “Compositions and methods for multimodal imaging” (University Health Network, priority 2005, dated 2016)

What was measured:
[1] = In vitro relaxometry (r1, r2); type: physicochemical; details: 20° C., 1.5 T, versus gadolinium concentration (free iohexol: [I])
Protocol: All in vitro relaxometry measurements were performed at 20° C. on a 1.5 Tesla, 20-cm-bore superconducting magnet (Nalorac Cryogenics Corp., Martinez, Calif.) controlled by an SMIS spectroscopy console (SMIS, Surrey, UK). The T1 relaxation time data were acquired using an inversion recovery (IR) sequence (45) with 35 inversion recovery time (TI) values logarithmically spaced from 1 to 32000 ms. A 10 second delay was given between each acquisition and the next inversion pulse. […] For every measurement 2000 even echoes were sampled with 8 averages. The effects of any residual transverse magnetization following the off-resonance irradiation was removed by phase-cycling the π/2 pulse (−x/x).
The T1 relaxation data were analyzed assuming mono-exponential behaviour
[formula] where S is the signal observed, M0 is the magnetization at equilibrium, t is time and T1 is the longitudinal relaxation time). All T2 decay data were plotted to a one component T2 model with a Gaussian fit on a logarithmic time scale. The r1 and r2 values were calculated from linear regression analysis of 1/T1 and 1/T2 relaxation rates versus gadolinium concentration.

[2] = In vitro MR imaging in multimodal phantom
Description: The phantom and the vials were filled to capacity to minimize air-induced susceptibility artefacts. Scans were produced using a T1 weighted spin echo sequence with a repetition time (TR) of 400 ms, an echo time (TE) of 9 ms, a slice thickness of 3 mm, a FOV of 1 9.9×19.9 cm and an image carrier of 256×192 pixels. The relative signal intensity was taken over the ROI. Solutions of free signal modifying agents were also imaged as controls in both modalities.

[3] = In vitro CT imaging in multimodal phantom; details: 120 kV, 300 mA
Protocol: In vitro contrast efficacy was determined by imaging the liposome formulated signal modifying agents at varying concentrations in both CT and MR, using a multimodal imaging phantom. To minimize the amount of agent leakage from liposomes, in vitro imaging scans were performed immediately following the removal of free agents by dialysis. […] The mean attenuation in Hounsfield units was measured using circular regions of interest (ROI). Attenuation values were then plotted against signal modifying agent concentrations using linear regression analysis.

Compound | r1 [1] | r2 [1] | r1 ([1]; listed as unencapsulated gadoteridol) | peak differential signal intensities with respect to water in MR ([2]; gadolinium 1 to 9 mmol/L) | CT attenuation (linear regression) [3] | r1 ([1]; listed as iohexyl) | average differential signal intensity in MR relative to water ([2]; iodine 0 to 17 mmol/L)
CC(O)CN1CCN(CC(=O)[O-])CCN(CC(=O)[O-])CCN(CC(=O)[O-])CC1.[Gd+3] (stereo not shown) [Free Gadoteridol, gadolinium complex of 10-(2-hydroxy-propyl)-1,4,7,10-tetraazacyclododecane-1,4,7-triacetic acid] | 5.14 ± 0.06 s^−1mmol^−1L | 6.21 ± 0.08 s^−1mmol^−1L | 5.1 s^−1mmol^−1L | > 600 SI | 11.1±0.5 HU/(mg of gadolinium) in 1 mL of HBS |  | 
CC(=O)N(CC(O)CO)c1c(I)c(C(=O)NCC(O)CO)c(I)c(C(=O)NCC(O)CO)c1I (stereo not shown) [Free Iohexol, iohexyl] | 0.00 ± 0.00 s^−1mmol^−1L | 0.01 ± 0.01 s^−1mmol^−1L |  |  | 29.0±0.4 HU/(mg of iodine) in 1 mL of HBS | 0.0 s^−1mmol^−1L | 1.8±7.1 SI
